Series [1] concerns certain CYPs. Details: method as in PMID 21287405. The following applies: read-out: IC50, inhibition of certain CYPs; cited from earlier work.
Series [2] deals with T1, CYP1A2 (Homo sapiens, UniProt P05177).
T1 construct: Frozen liver (both rat and human) was thawed; from tissue; host or cells: human liver microsomal fraction
T1 sequence (P05177 1-516): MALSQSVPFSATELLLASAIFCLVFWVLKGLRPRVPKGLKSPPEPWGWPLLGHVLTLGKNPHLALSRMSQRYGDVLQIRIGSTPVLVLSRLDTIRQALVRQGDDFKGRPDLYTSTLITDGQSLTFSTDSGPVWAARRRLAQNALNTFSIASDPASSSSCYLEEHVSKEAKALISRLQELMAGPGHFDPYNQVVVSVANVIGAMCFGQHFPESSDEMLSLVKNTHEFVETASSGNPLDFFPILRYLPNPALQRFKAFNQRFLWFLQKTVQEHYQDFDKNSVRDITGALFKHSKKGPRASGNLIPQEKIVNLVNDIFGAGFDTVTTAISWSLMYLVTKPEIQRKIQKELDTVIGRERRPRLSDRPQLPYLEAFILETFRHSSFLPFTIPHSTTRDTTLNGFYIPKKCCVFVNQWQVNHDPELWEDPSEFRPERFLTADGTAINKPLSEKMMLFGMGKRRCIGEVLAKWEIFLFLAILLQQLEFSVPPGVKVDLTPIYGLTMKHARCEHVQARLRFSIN
Nature of the series: CYP1A2 (EROD activity, 7-ethoxyresorufin O-deethylation) in human liver microsomes. Format: in vitro ADME. The following applies: liver microsomes, probe 7-ethoxyresorufin; human, 5 µM inhibitor. As to the method: (§1) Enzyme activities were assayed in human and rat liver cytosolic and microsomal fractions. The enzyme assays (each performed in 4–8 replicates) were repeated three times (HPLC measurement of CYP activities was repeated only twice, Table 3). Inhibition studies were carried out by incubation of specific substrates in the presence of sesquiterpenes (in the range 0–100 µM).
(§2) Enzyme activities of individual CYP forms were measured according to established protocols. The following microsomal CYP activities were tested: CYP2A6, coumarin 7-hydroxylation; CYP2B6, 7-ethoxy-4-(trifluoromethyl)coumarin 7-deethylation, CYP2C9, diclofenac 4′-hydroxylation, CYP2C19 assay, S-mephenytoin 4′-hydroxylation, CYP2D6 on bufuralol 1′-hydroxylation, CYP2E1, chlorzoxazone 6-hydroxylation and CYP3A4, testosterone 6β-hydroxylation, and midazolam 1′-hydroxylation. Activities were measured using the Prominence HPLC system (Shimadzu, Kyoto, Japan), equipped with a LiChroCART 250-4 LiChrospher 100 RP-18 column or Chromolith®HighResolution RP-18 end-capped column (Merck, Darmstadt, Germany) and UV or fluorescence detection, according to the cited literature. Further incubation details are described either in the corresponding references, as well as in the papers from this laboratory e.g., [42, 43, 44]. CYP1A2, 7-ethoxyresorufin O-deethylation, and CYP3A4/2B6 (human), CYP2B1 (rat), benzyloxyresorufin O-debenzylation were measured using the microplate reader Tecan Infinite M200 (Tecan Group; Mannedorf, Switzerland).
Sesquiterpenes CNER, TNER and FAR, non-volatile liquids, were pipetted, and proper concentration was calculated according to density. All compounds were dissolved in DMSO. […] All experiments were performed in three replicates, if not stated otherwise.
(§3) CNER, TNER and FAR at a fixed concentration of 100 µM were screened for inhibition of cytosolic AKR1A1, AKR1C, CBR1, NQO1, SULT, and GST, and microsomal CYPs and UGT. The degree of inhibition caused by sesquiterpenes was compared with non-inhibited control reactions, which contained solvent without sesquiterpenes.
The concentration of sesquiterpenes required for 50% inhibition of enzyme activity, the IC50 value, was determined. […] The IC50 values for each sesquiterpene were determined by plotting sigmoidal dose response curves of specific enzyme activity vs. logarithm of sesquiterpene concentration using GraphPad Prism version 6.07 for Windows (GraphPad Software Inc., La Jolla, CA, USA).
(§4) The kinetic inactivation study of the CYP1A2 (EROD activity) and CYP2B/3A (BROD activity), both in rat and human, with TNER, was performed to find out the mechanism of enzyme inhibition by this sesquiterpene. Mechanism of EROD and BROD inhibition was tested at the final ethoxyresorufin or benzyloxyresorufin concentrations 0.5–5.0 µM. The concentration of TNER was 5.0 µM.
(§5) Experimental data were fitted to the Michaelis-Menten equation, basic kinetic parameters were determined using the program GraphPad Prism version 6.07 for Windows. The type of inhibition was estimated using a Lineweaver-Burk (double-reciprocal) plot.

The subject of series [3] is CYP2B/3A. Briefly: CYP2B/3A (BROD activity, benzyloxyresorufin O-debenzylation) in human liver microsomes. The settings on record: probe benzyloxyresorufin. Format: in vitro ADME. As to the method: as §1, §2
Sesquiterpenes CNER, TNER and FAR, non-volatile liquids, were pipetted, and proper concentration was calculated according to density. All compounds were dissolved in DMSO. The final solvent concentration in the inhibition assays was 1%, which had no effect on the enzyme activity (data not shown). Non-enzymatic interference of sesquiterpenes with some compounds in the reaction mixtures (e.g., fluorescence enhancing or quenching) was considered and excluded. All experiments were performed in three replicates, if not stated otherwise.
as §3
The concentration of sesquiterpenes required for 50% inhibition of enzyme activity, the IC50 value, was determined. Their final concentrations in the reaction mixture were proposed to cover the entire inhibitory range of these compounds (1–100 µM). The IC50 values for each sesquiterpene were determined by plotting sigmoidal dose response curves of specific enzyme activity vs. logarithm of sesquiterpene concentration using GraphPad Prism version 6.07 for Windows (GraphPad Software Inc., La Jolla, CA, USA).
as §4, §5

Series [4] concerns HeLa. Details: method as in earlier work. The following applies: HeLa cell line; cited from earlier work.
Series [5] deals with Jurkat. Details: method as in earlier work. The settings on record: Jurkat cell line; cited from earlier work.
For series [6], the system named is CYP3A4. Details: method as in PMID 25858508. The settings on record: human liver microsomes; cited from earlier work.

As to `CC1=CCC[C@]2(C)O[C@H]2CC(=C(C)C)C(=O)C1` [(4S,5S)-(+)-germacrone-4,5-epoxide], the half-maximal inhibitory concentration (IC50) in series [1] was 1000 nM.

On to `O=c1cc(-c2ccccc2)oc2c1ccc1ccccc12` [ANF, α-naphthoflavone, reference compound], for which, in series [2], the inhibition at 5 µM was 92%. Take `CC(=O)N1CCN(c2ccc(OCC3COC(Cn4ccnc4)(c4ccc(Cl)cc4Cl)O3)cc2)CC1` (stereo not shown) [KET, ketoconazole, reference compound]: the inhibition at 5 µM in series [3] (liver microsomes, human, 5 µM inhibitor) is 66%. The IC50 in series [3] (human liver microsomes) is 2680 nM.

As for `C=CC(C)(O)CC/C=C(\C)CCC=C(C)C` (stereo not shown) [NER, Nerolidol], the “concentration with strong anti-tumor effects” value in series [4] and in series [5] was “less than 5 µM” each time. For the compound `C=C1C(=O)O[C@@H]2C[C@@]3(C)CCC[C@H](C)C3=C[C@H]12` [alantolactone], the IC50 in series [6] was 3600 nM.

The values above are taken from publication PMC6154719 (Molecules : A Journal of Synthetic Chemistry and Natural …, 2017).
